Measured values taken from ChEMBL document CHEMBL1201862, “PubChem BioAssay data set” (2004).
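The compound was tested at five concentrations on cells cultured in 96-well plates, with a 48-hour exposure period. Here, GI50 denotes the concentration required for 50% inhibition of growth.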 Active and inactive are the calls of the source. No stated cut-off is given here; in the data, active = GI50 up to about 1.1 µM and inactive = higher.

Columns and labels:
Assay in all cases: NCI-60 cell line screen, 48 h
COLO 205 = test system: COLO 205
EKVX = test system: EKVX
HCT-15 = test system: HCT-15
BT-549 = test system: BT-549
SK-MEL-2 = test system: SK-MEL-2
SF-268 = test system: SF-268
TK-10 = test system: TK-10
RXF 393 = test system: RXF 393
IGROV-1 = test system: IGROV-1
T47D = test system: T47D
SN12C = test system: SN12C
M14 = test system: M14
HT-29 = test system: HT-29
UACC-62 = test system: UACC-62
HL-60 = test system: HL-60
MCF7 = test system: MCF7
OVCAR-8 = test system: OVCAR-8
UO-31 = test system: UO-31
HOP-92 = test system: HOP-92

Structure (SMILES)	GI50 (COLO 205)	GI50 (EKVX)	GI50 (HCT-15)	GI50 (BT-549)	GI50 (SK-MEL-2)	GI50 (SF-268)	GI50 (TK-10)	GI50 (RXF 393)	GI50 (IGROV-1)	GI50 (T47D)	GI50 (SN12C)	GI50 (M14)	GI50 (HT-29)	GI50 (UACC-62)	GI50 (HL-60)	GI50 (MCF7)	GI50 (OVCAR-8)	GI50 (UO-31)	GI50 (HOP-92)
c1ccc2c(c1)-c1nc3ccccc3cc1C2N1CCOCC1 (stereo not drawn)	> 100 µM (inactive)	63.1 µM (inactive)	> 100 µM	> 100 µM (inactive)	> 100 µM (inactive)	61.2 µM (inactive)	> 100 µM (inactive)	> 100 µM (inactive)	79.4 µM (inactive)	45.8 µM (inactive)	> 100 µM (inactive)	> 100 µM (inactive)	92.5 µM (inactive)	97.5 µM (inactive)	34.5 µM (inactive)	> 100 µM (inactive)	93.5 µM (inactive)	1.37 µM (inactive)	–
O=C1OCC2=C1C(c1ccc3c(c1)OCO3)c1cc3c(cc1O2)OCO3 (stereo not drawn)	0.44 µM (active)	1.72 µM (inactive)	0.346 µM	–	0.375 µM (active)	1.94 µM (inactive)	5.81 µM (inactive)	0.828 µM (active)	0.537 µM (active)	0.7 µM (active)	1.3 µM (inactive)	0.369 µM (active)	0.346 µM (active)	0.364 µM (active)	0.134 µM (active)	0.341 µM (active)	1.11 µM (active)	1.59 µM (inactive)	14.4 µM (inactive)
Cc1n[nH]c(=O)n1/N=C/c1ccc(F)cc1	> 100 µM (inactive)	92.9 µM (inactive)	> 100 µM	> 100 µM (inactive)	–	> 100 µM (inactive)	–	40.6 µM (inactive)	–	> 100 µM (inactive)	> 100 µM (inactive)	> 100 µM (inactive)	–	> 100 µM (inactive)	–	–	> 100 µM (inactive)	> 100 µM (inactive)	> 100 µM (inactive)
COc1ccc(C(=O)C(c2ccc(OC)cc2)C2(O)C(=O)Nc3c(Cl)cc(Cl)cc32)cc1 (stereo not drawn)	29.4 µM (inactive)	18.7 µM (inactive)	21.5 µM	–	14.1 µM (inactive)	33.8 µM (inactive)	22.5 µM (inactive)	22.3 µM (inactive)	–	–	18.7 µM (inactive)	16.9 µM (inactive)	19.4 µM (inactive)	–	4.68 µM (inactive)	–	23.7 µM (inactive)	27.7 µM (inactive)	15.3 µM (inactive)
NC(=O)C(=CNC(N)=S)C(N)=O	> 100 µM (inactive)	> 100 µM (inactive)	> 100 µM	> 100 µM (inactive)	> 100 µM (inactive)	> 100 µM (inactive)	–	> 100 µM (inactive)	> 100 µM (inactive)	> 100 µM (inactive)	> 100 µM (inactive)	> 100 µM (inactive)	> 100 µM (inactive)	> 100 µM (inactive)	> 100 µM (inactive)	> 100 µM (inactive)	> 100 µM (inactive)	60 µM (inactive)	–
COC(=O)c1c(O)ccc2c1c1c(n2Cc2ccccc2OC)C(=O)c2ccccc2C1	15.5 µM (inactive)	–	63.4 µM	> 100 µM (inactive)	87.5 µM (inactive)	40.5 µM (inactive)	> 100 µM (inactive)	26.5 µM (inactive)	63.1 µM (inactive)	81.3 µM (inactive)	22.8 µM (inactive)	46.2 µM (inactive)	36.5 µM (inactive)	76.4 µM (inactive)	> 100 µM (inactive)	23.7 µM (inactive)	91.2 µM (inactive)	44.5 µM (inactive)	–
COc1ccc(C(=O)/C=C/c2ccc(OCCCCCCCCCCOc3ccc(/C=C/C(=O)c4ccc(OC)c(OC)c4)cc3)cc2)c(OC)c1	> 100 µM (inactive)	> 100 µM (inactive)	> 100 µM	–	> 100 µM (inactive)	> 100 µM (inactive)	> 100 µM (inactive)	> 100 µM (inactive)	> 100 µM (inactive)	> 100 µM (inactive)	> 100 µM (inactive)	> 100 µM (inactive)	> 100 µM (inactive)	> 100 µM (inactive)	> 100 µM (inactive)	> 100 µM (inactive)	> 100 µM (inactive)	> 100 µM (inactive)	–
CSC(SC)=C(C#N)C(=O)Nc1ccc(Cl)cc1	18.3 µM (inactive)	44.7 µM (inactive)	33.2 µM	46.7 µM (inactive)	> 100 µM (inactive)	61.7 µM (inactive)	23.8 µM (inactive)	19.8 µM (inactive)	–	25.4 µM (inactive)	> 100 µM (inactive)	48.4 µM (inactive)	35.6 µM (inactive)	46 µM (inactive)	23.9 µM (inactive)	41.8 µM (inactive)	52.8 µM (inactive)	22 µM (inactive)	–
CCOC(=O)c1sc2c(c1OC(=O)c1cccs1)c(=O)n(-c1ccccc1)c(=S)n2-c1ccccc1	17.3 µM (inactive)	36.9 µM (inactive)	14 µM	–	–	29.6 µM (inactive)	25 µM (inactive)	24.3 µM (inactive)	12.2 µM (inactive)	23.5 µM (inactive)	18.3 µM (inactive)	12.4 µM (inactive)	3.9 µM (inactive)	15.3 µM (inactive)	15.5 µM (inactive)	14.9 µM (inactive)	18.2 µM (inactive)	0.175 µM (active)	24.5 µM (inactive)
CN(/N=C/c1ccc(C(=O)O)cc1)C1=NCCCCN1	> 100 µM (inactive)	> 100 µM (inactive)	> 100 µM	> 100 µM (inactive)	–	> 100 µM (inactive)	–	–	> 100 µM (inactive)	> 100 µM (inactive)	> 100 µM (inactive)	> 100 µM (inactive)	> 100 µM (inactive)	> 100 µM (inactive)	> 100 µM (inactive)	> 100 µM (inactive)	> 100 µM (inactive)	> 100 µM (inactive)	–
Fc1ccc(Oc2nc3ccc(C(F)(F)F)cc3nc2-c2ccccc2)cc1	> 100 µM (inactive)	> 100 µM (inactive)	> 100 µM	> 100 µM (inactive)	60 µM (inactive)	> 100 µM (inactive)	51.2 µM (inactive)	67.5 µM (inactive)	> 100 µM (inactive)	99.3 µM (inactive)	> 100 µM (inactive)	50.4 µM (inactive)	32.1 µM (inactive)	39.8 µM (inactive)	87.3 µM (inactive)	28.8 µM (inactive)	> 100 µM (inactive)	44.3 µM (inactive)	–
O=P(c1ccccc1)(c1ccccc1)c1ccc2c(c1)OCCOCCOCCOCCO2	> 100 µM (inactive)	> 100 µM (inactive)	> 100 µM	> 100 µM (inactive)	–	> 100 µM (inactive)	> 100 µM (inactive)	–	> 100 µM (inactive)	> 100 µM (inactive)	> 100 µM (inactive)	> 100 µM (inactive)	–	> 100 µM (inactive)	> 100 µM (inactive)	> 100 µM (inactive)	> 100 µM (inactive)	> 100 µM (inactive)	–
O=C1OC2C=CCC1C2 (stereo not drawn)	> 100 µM (inactive)	> 100 µM (inactive)	> 100 µM	> 100 µM (inactive)	> 100 µM (inactive)	> 100 µM (inactive)	> 100 µM (inactive)	–	> 100 µM (inactive)	> 100 µM (inactive)	> 100 µM (inactive)	> 100 µM (inactive)	> 100 µM (inactive)	> 100 µM (inactive)	> 100 µM (inactive)	> 100 µM (inactive)	> 100 µM (inactive)	> 100 µM (inactive)	–
COC(=O)C1Cc2ccc3c(c2C1=O)CCCC3 (stereo not drawn)	> 100 µM (inactive)	70.5 µM (inactive)	69.5 µM	> 100 µM (inactive)	> 100 µM (inactive)	> 100 µM (inactive)	> 100 µM (inactive)	–	> 100 µM (inactive)	23.2 µM (inactive)	> 100 µM (inactive)	> 100 µM (inactive)	> 100 µM (inactive)	81.1 µM (inactive)	> 100 µM (inactive)	73.6 µM (inactive)	92.3 µM (inactive)	61.4 µM (inactive)	–
COC(=O)OC[C@H]1O[C@@H](n2cc(C)c(=O)[nH]c2=O)CC1OC(=O)OC (stereo partly drawn)	> 100 µM (inactive)	> 100 µM (inactive)	> 100 µM	> 100 µM (inactive)	> 100 µM (inactive)	> 100 µM (inactive)	> 100 µM (inactive)	> 100 µM (inactive)	> 100 µM (inactive)	> 100 µM (inactive)	> 100 µM (inactive)	> 100 µM (inactive)	> 100 µM (inactive)	> 100 µM (inactive)	> 100 µM (inactive)	> 100 µM (inactive)	> 100 µM (inactive)	> 100 µM (inactive)	–
O=C1CCCCC/C1=C\c1cccc(F)c1	> 100 µM (inactive)	73.8 µM (inactive)	39.8 µM	51.9 µM (inactive)	> 100 µM (inactive)	82.4 µM (inactive)	62.5 µM (inactive)	> 100 µM (inactive)	58.9 µM (inactive)	> 100 µM (inactive)	> 100 µM (inactive)	43.4 µM (inactive)	60.5 µM (inactive)	67.3 µM (inactive)	17.1 µM (inactive)	64.9 µM (inactive)	> 100 µM (inactive)	57.7 µM (inactive)	–
Nc1ccc(-c2nc3ccc(F)cc3s2)cc1Cl	> 100 µM (inactive)	> 61.9 µM (inactive)	> 100 µM	> 70.6 µM (inactive)	> 84.1 µM (inactive)	35.3 µM (inactive)	< 0.01 µM (active)	> 41.5 µM (inactive)	< 0.01 µM (active)	–	> 100 µM (inactive)	> 100 µM (inactive)	52.7 µM (inactive)	> 69.8 µM (inactive)	–	< 0.01 µM (active)	> 65.5 µM (inactive)	> 100 µM (inactive)	24.9 µM (inactive)
